Laboratory results from patent publication US20250179059A1 (The Regents of the University of California, priority 2021, published 2025).
Where two headings read alike, the source gives them in different places.

What was measured:
[1] = test system: human SKM-1 acute myeloid leukemia cells; assay: SKM-1 antiproliferation cell-based assay (ATPlite); details: Homo sapiens
Outline: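 Log-phase cells in RPMI 1640/15% FBS were seeded at 34722 cells/mL and exposed for 4 days to nine-concentration DMSO serial dilutions in triplicate. Viability was read as ATP luminescence (ATPlite 1step), and IC50 values came from variable-slope non-linear regression.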

[2] = target: T1, human BRD4 bromodomain II (Homo sapiens, UniProt O60885); assay: Bromodomain binding assay (AlphaScreen), BRD4 BDII
T1 construct: human BRD4 bromodomain II [based on Genbank NM_058243, residues 349-460]; host or cells: E. coli
Outline: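 E. coli-expressed N-terminal His6-tagged human BRD4 BDII (residues 349-460) or BDI (residues 44-170) was preincubated 30 min at room temperature with compound (10-point, 3-fold) in pH 7.5 HEPES buffer, 1% DMSO. Displacement of biotinylated tetra-acetylated H4 1-21 peptide was read by AlphaScreen, and IC50 came from curve fitting.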

[3] = SKM-1, 96 h, SKM-1 antiproliferation assay, 4 days, Table C2
[4] = AlphaScreen assay, Table C2, read-out: BRD4 BDII IC50
[5] = SKM-1, SKM-1 antiproliferation assay
[6] = BRD4 BDII AlphaScreen assay, read-out: BRD4 BD2 IC50

SMILES | GI50 [1, 3] [nM] | IC50 [2, 4] [nM] | GI50 [1, 5] [nM] | IC50 [2, 6] [nM]
CC[C@]1(O)CCN(c2cc(-c3cc(F)cc(-c4ccc(-n5ccn(C)c5=O)c(Cl)c4)c3O)ccn2)C1 [Example 819, (S)-1-(3-chloro-3′-(2-(3-ethyl-3-hydroxypyrrolidin-1-yl)pyridin-4-yl)-5′-fluoro-2′-hydroxy-[1,1′-biphenyl]-4-yl)-3-methyl-1H-imidazol-2(3H)-one] | 30 to 300 | 1 to 10 |  | 
CC(C)N1CCN(c2cc(-c3cc(F)cc(-c4ccc(-n5ccn(C)c5=O)c(Cl)c4)c3O)cnc2C(F)F)CC1 [Example 831, 1-(3-chloro-3′-(6-(difluoromethyl)-5-(4-isopropylpiperazin-1-yl)pyridin-3-yl)-5′-fluoro-2′-hydroxy-[1,1′-biphenyl]-4-yl)-3-methyl-1H-imidazol-2(3H)-one] | 0.3 to 30 | 1 to 10 |  | 
COc1ncc(-c2cc(F)cc(-c3ccc(-n4ccn(C)c4=O)c(Cl)c3)c2O)cc1N1CCN(C2CCC2)CC1 [Example 880] |  |  | 0.3 to 30 | 0.01 to 1
Cn1ccn(-c2ccc(-c3cc(F)cc(-c4ccnc(N5CC6(CC6)[C@](C)(O)C5)c4)c3O)cc2Cl)c1=O [Example 815] | 0.3 to 30 | 0.01 to 1 |  | 
Cc1cc(-c2ccc(-n3ccn(C)c3=O)c(Cl)c2)c(O)c(-c2cnc(C)c(N3CCN(C(C)(C)C)CC3)c2)n1 [Example 961, 1-(4-(5′-(4-(tert-butyl)piperazin-1-yl)-3-hydroxy-6,6′-dimethyl-[2,3′-bipyridin]-4-yl)-2-chlorophenyl)-3-methyl-1H-imidazol-2(3H)-one] |  |  | 0.3 to 30 | 1 to 10
Cc1cc(-c2ccnc(N3CCNCC3)c2)c(O)c(-c2ccc(-n3ccn(C)c3=O)c(Cl)c2)c1 [Example 420, 1-(3-chloro-2′-hydroxy-5′-methyl-3′-(2-(piperazin-1-yl)pyridin-4-yl)-[1,1′-biphenyl]-4-yl)-3-methyl-1H-imidazol-2(3H)-one] | 0.3 to 30 | 0.01 to 1 |  | 
O=C1CCCCN1c1ccc(-c2cc(F)cc(-c3ccnc(N4CCNCC4)c3)c2O)cc1Cl [Example 281, 1-(3-chloro-5′-fluoro-2′-hydroxy-3′-(2-(piperazin-1-yl)pyridin-4-yl)-[1,1′-biphenyl]-4-yl)piperidin-2-one] | 300 to 3000 | 10 to 100 |  | 
Cn1ccn(-c2ccc(-c3cc(F)cc(-c4ccnc(N5CC[C@](C)(N)C5)c4)c3O)cc2Cl)c1=O [Example 711, (S)-1-(3′-(2-(3-amino-3-methylpyrrolidin-1-yl)pyridin-4-yl)-3-chloro-5′-fluoro-2′-hydroxy-[1,1′-biphenyl]-4-yl)-3-methyl-1,3-dihydro-2H-imidazol-2-one] | 0.3 to 30 | 0.01 to 1 |  | 
CN1CCN(c2ccc(-c3cc(F)cc(-c4cnc(Cl)c(N5CCNCC5)c4)c3O)cc2Cl)C1=O [Example 407, 1-(3-chloro-3′-(6-chloro-5-(piperazin-1-yl)pyridin-3-yl)-5′-fluoro-2′-hydroxy-[1,1′-biphenyl]-4-yl)-3-methylimidazolidin-2-one] | 0.3 to 30 | 1 to 10 |  | 
CC(=O)Nc1ccc(-c2cccc(-c3cc(Cl)nc(N4CCNCC4)c3)c2O)cc1F [Example 226, N-(3′-(2-chloro-6-(piperazin-1-yl)pyridin-4-yl)-3-fluoro-2′-hydroxy-[1,1′-biphenyl]-4-yl)acetamide] | 300 to 3000 | 1 to 10 |  | 
Cn1ccn(-c2ccc(-c3cc(F)cc(-c4ccnc(N5CCCC(C)(N)C5)c4)c3O)cc2Cl)c1=O (stereo not drawn) [Example 744, 1-(3′-(2-(3-amino-3-methylpiperidin-1-yl)pyridin-4-yl)-3-chloro-5′-fluoro-2′-hydroxy-[1,1′-biphenyl]-4-yl)-3-methyl-1H-imidazol-2(3H)-one] | 0.3 to 30 | 0.01 to 1 |  | 
CC(C)c1cc(-c2ccnc(N3CCNCC3)c2)c(O)c(-c2ccc(N3CCN(C)C3=O)c(Cl)c2)c1 [Example 315, l-(3-chloro-2′-hydroxy-5′-isopropyl-3′-(2-(piperazin-1-yl)pyridin-4-yl)-[1,1-biphenyl]-4-yl)-3-methylimidazolidin-2-one] | 300 to 3000 | 10 to 100 |  | 
Cc1ncc(-c2cc(F)cc(-c3ccc(-n4ccn(C)c4=O)c(Cl)c3)c2O)cc1N1CC[C@@]2(CCCN2C(C)C)C1 [Example 955, (S)-1-(3-chloro-5′-fluoro-2′-hydroxy-3′-(5-(1-isopropyl-1,7-diazaspiro[4.4]nonan-7-yl)-6-methylpyridin-3-yl)-[1,1′-biphenyl]-4-yl)-3-methyl-1,3-dihydro-2H-imidazol-2-one] |  |  | 0.3 to 30 | 1 to 10
CC(=O)Nc1ccc(-c2cccc(-c3cc(C#N)nc(N4CCNCC4)c3)c2O)cc1F [Example 313, N-(3′-(2-cyano-6-(piperazin-1-yl)pyridin-4-yl)-3-fluoro-2′-hydroxy-[1,1′-biphenyl]-4-yl)acetamide] | ≥ 3000 | > 100 |  | 
CN1CCN(c2ccc(-c3cc(F)cc(-c4cc(N5CCC[C@H](N)C5)c(=O)n(C)c4)c3O)cc2Cl)C1=O [Example 378, (S)-3-(3-aminopiperidin-1-yl)-5-(3′-chloro-5-fluoro-2-hydroxy-4′-(3-methyl-2-oxoimidazolidin-1-yl)-[1,1′-biphenyl]-3-yl)-1-methylpyridin-2(1H)-one] | 30 to 300 | 1 to 10 |  | 
COc1ncc(-c2cc(F)cc(-c3ccc(-n4ccn(C)c4=O)c(Cl)c3)c2O)cc1N1CCN(C2CCOC2)CC1 (stereo not drawn) [Example 869] |  |  | 0.3 to 30 | 1 to 10
Cn1ccn(-c2ccc(-c3cc(F)cc(-c4ccnc(N5CCC[C@H](CN)C5)c4)c3O)cc2Cl)c1=O [Example 497, (R)-1-(3′-(2-(3-(aminomethyl)piperidin-1-yl)pyridin-4-yl)-3-chloro-5′-fluoro-2′-hydroxy-[1,1′-biphenyl]-4-yl)-3-methyl-1H-imidazol-2(3H)-one] | 300 to 3000 | 1 to 10 |  | 
Cn1ccn(-c2ccc(-c3cc(F)cc(-c4ccnc(N5CCN(C6CC6)CC5)c4)c3O)cc2Cl)c1=O [Example 531, 1-(3-chloro-3′-(2-(4-cyclopropylpiperazin-1-yl)pyridin-4-yl)-5′-fluoro-2′-hydroxy-[1,1′-biphenyl]-4-yl)-3-methyl-1H-imidazol-2(3H)-one] | 30 to 300 | 1 to 10 |  | 
Cc1ncc(-c2cc(F)cc(-c3ccc(-n4ccn(C)c4=O)c(Cl)c3)c2O)cc1N1CCC2(CCCN2C(C)C)C1 (stereo not drawn) [Example 911, 1-(3-chloro-5′-fluoro-2′-hydroxy-3′-(5-(1-isopropyl-1,7-diazaspiro[4.4]nonan-7-yl)-6-methylpyridin-3-yl)-[1,1′-biphenyl]-4-yl)-3-methyl-1H-imidazol-2(3H)-one] |  |  | 0.3 to 30 | 0.01 to 1
Cn1cc(-c2cc(F)cc(-c3ccc(-n4ccn(C)c4=O)c(Cl)c3)c2O)cc(N2CCNCC2)c1=O [Example 437, 5-(3′-chloro-5-fluoro-2-hydroxy-4′-(3-methyl-2-oxo-2,3-dihydro-1H-imidazol-1-yl)-[1,1′-biphenyl]-3-yl)-1-methyl-3-(piperazin-1-yl)pyridin-2(1H)-one] | 0.3 to 30 | 1 to 10 |  | 
[2H]C([2H])([2H])n1ccn(-c2ccc(-c3cc(F)cc(-c4ccnc(N5CC6(CNC6)C5)c4)c3O)cc2Cl)c1=O [Example 492, 1-(3′-(2-(2,6-diazaspiro[3.3]heptan-2-yl)pyridin-4-yl)-3-chloro-5′-fluoro-2′-hydroxy-[1,1′-biphenyl]-4-yl)-3-deuteromethyl-1H-imidazol-2(3H)-one] | 30 to 300 | 1 to 10 |  | 
Cn1ccn(-c2ccc(-c3cc(F)cc(-c4ccnc(N5CCCC6(CCN6)C5)c4)c3O)cc2Cl)c1=O (stereo not drawn) [Example 688, 1-(3′-(2-(1,6-diazaspiro[3.5]nonan-6-yl)pyridin-4-yl)-3-chloro-5′-fluoro-2′-hydroxy-[1,1′-biphenyl]-4-yl)-3-methyl-1H-imidazol-2(3H)-one] | 0.3 to 30 | 0.01 to 1 |  | 
[2H]C([2H])([2H])N1CCN(c2ccc(-c3cc(F)cc(-c4ccnc(N5CCNCC5)c4)c3O)cc2Cl)C1=O [Example 412, 1-(3-chloro-5′-fluoro-2′-hydroxy-3′-(2-(piperazin-1-yl)pyridin-4-yl)-[1,1′-biphenyl]-4-yl)-^3-deuteromethylimidazolidin-2-one] | 30 to 300 | 0.01 to 1 |  | 
CC(=O)Nc1ccc(-c2cccc(-c3cc(C#N)cc(N4CCNCC4)c3)c2O)cc1F [Example 234, N-(3″-cyano-3-fluoro-2′-hydroxy-5″-(piperazin-1-yl)-[1,1′:3′,1″-terphenyl]-4-yl)acetamide] | 30 to 300 | 1 to 10 |  | 
COC(=O)c1cc(-c2ccnc(N3CCNCC3)c2)c(O)c(-c2ccc(NC(C)=O)c(F)c2)c1 [Example 290, Methyl 4′-acetamido-3′-fluoro-6-hydroxy-5-(2-(piperazin-1-yl)pyridin-4-yl)-[1,1′-biphenyl]-3-carboxylate] | ≥ 3000 | > 100 |  | 
CC(=O)Nc1ccc(-c2cccc(-c3cncc(N4CCN[C@H](C)C4)c3)c2O)cc1Cl [Example 259, (R)-N-(3-chloro-2′-hydroxy-3′-(5-(3-methylpiperazin-1-yl)pyridin-3-yl)-[1,1′-biphenyl]-4-yl)acetamide] | 30 to 300 | 1 to 10 |  | 
Cn1ccn(-c2ccc(-c3cc(F)cc(-c4cnc(N)c(N5CCN(C(C)(C)C)CC5)c4)c3O)cc2Cl)c1=O [Example 914, 1-(3′-(6-amino-5-(4-(tert-butyl)piperazin-1-yl)pyridin-3-yl)-3-chloro-5′-fluoro-2′-hydroxy-[1,1′-biphenyl]-4-yl)-3-methyl-1H-imidazol-2(3H)-one] |  |  | 0.3 to 30 | 1 to 10
